{
  "source": "paper PMC3227622",
  "about": "“GnRH receptor activation competes at a low level with growth signaling in stably transfected human breast cell lines” (BMC Cancer, 2011)",
  "key": {"[1]": {"test_system": "SVCT-2 cells", "experiment": "SRB cell growth assay, SVCT-2 (rat GnRH receptor transfected)", "assay_type": "cell-based, human", "conditions": "for pIC50: Homo sapiens; for pIC50 / effect on cell growth of co-treatment / effect on cell growth: SRB; for effect on cell growth: single treatment", "method": "(§1) Cells were cultured in Dulbecco's modified Eagle's medium (DMEM) with 10% fetal bovine serum. Medium for SVCT cells was supplemented with recombinant human insulin and hydrocortisone as specified by the suppliers (ECACC, UK). HEK293[SCL60] and WPE-1-NB26-8 cells were cultured as described elsewhere. Cells were transfected with a plasmid construct, pcDNA3.1(+) (neo) (Invitrogen, UK) containing a rat GnRH receptor cDNA insert, using Fugene 6 (Roche, UK) in Optimem-I (GIBCO, Invitrogen, UK). Cell clones growing in 6 cm dishes were picked using trypsinization in cloning cylinders (Sigma, UK) and sequentially expanded in multiwell plates and flasks prior to characterization. Sub-clones were generated by re-transfecting an individual clone with a 2.334 kb SV40 promoter-hygromycin phosphotransferase cDNA fragment excised from pcDNA3.1(-) (hygro) plasmid (Invitrogen, UK) using PvuII (Promega, UK) and purified following agarose gel electrophoresis.\n(§2) Cells were seeded into 12 well plates and growth was monitored using the sulforhodamine B (SRB) staining assay described previously. Two milliliters culture medium per well was sufficient to sustain cell growth over all time courses investigated. Cells were treated with a dose range of Triptorelin or vehicle (20% propylene glycol, Sigma, UK). Similar experiments employing IGF-IR, EGFR/ErbB2 and PI3K inhibitors were performed. Assay measurements were performed in triplicate and were repeated on separate occasions. At each time point, cells were fixed by adding 1 ml 25% trichloroacetic acid to each well, stored at 4°C for 1 h before gently washing and drying plates. Fixed cells were stained with 0.4% SRB in 1% acetic acid, washed, dried and dissolved in 1 ml 0.1 M Tris pH 10. Absorbance measurements at 540 nm correlated with the number of cells per well.\n(§3) Immuno-fluorescence data were analyzed by one-way ANOVA using Minitab version 16 (Minitab Inc., USA). Prism software (GraphPad, USA) was used to prepare graphs and to calculate EC50 and IC50 values. Western blots were quantified using ImageQuant software (GE Healthcare). Quantitative data were analyzed using on-line tools for T-test, http://easycalculation.com/statistics/standard-deviation.php and http://www.quantitativeskills.com/sisa/."}, "[2]": {"test_system": "MCF-7hygro14 cells", "experiment": "SRB cell growth assay, MCF-7hygro14 (MCF-7-30-7hygro14)", "assay_type": "cell-based, human", "conditions": "for pIC50: 96 h, without co-treatment, read-out: IC50 growth inhibition; for pIC50 / effect on cell growth of co-treatment / effect on cell growth: 4 days", "method": "as §1, §2, §3"}, "[3]": {"test_system": "HEK293[SCL60] cells", "experiment": "SRB cell growth assay, HEK293[SCL60]", "assay_type": "cell-based, human", "conditions": "SRB (Triptorelin: after 4 days)", "excerpt": "Most reagents were purchased from Sigma UK, including D-Trp^6GnRH-I (D-Trp^6-LHRH, Triptorelin). Antibodies for ERK-1/2 and phosphorylated-ERK1/2 were purchased from Cell Signaling Technology, UK and for β-actin, from Sigma, UK. Secondary antibodies conjugated to alkaline phosphatase were from Sigma, UK. Insulin like growth factor receptor-I (IGF-IR) inhibitor II, EGFR/ErbB2 inhibitor and phosphatidylinositol-4,5-bisphosphate 3-kinase γ (PI3Kγ) inhibitor were purchased from Calbiochem, UK. SVCT cells were purchased from ECACC, UK. MCF-7, MDA-MB-231, ZR-75-1, and T47D cells were from American Type Culture Collection (LGC, UK). The GnRH receptor stably transfected HEK293[SCL60] and prostate WPE-1-NB26-8 cell lines described elsewhere together with HEK293 cells were used as controls for comparison.\nCells were cultured in Dulbecco's modified Eagle's medium (DMEM) with 10% fetal bovine serum. Medium for SVCT cells was supplemented with recombinant human insulin and hydrocortisone as specified by the suppliers (ECACC, UK). HEK293[SCL60] and WPE-1-NB26-8 cells were cultured as described elsewhere. […]\nCells were seeded into 12 well plates and growth was monitored using the sulforhodamine B (SRB) staining assay described previously. […] Absorbance measurements at 540 nm correlated with the number of cells per well."}, "[4]": {"test_system": "MDA-MB-231-34 cells", "experiment": "SRB cell growth assay, MDA-MB-231-34", "assay_type": "cell-based, human", "conditions": "SRB (Triptorelin 100 nM)", "method": "as §1\nCells were seeded into 12 well plates and growth was monitored using the sulforhodamine B (SRB) staining assay described previously. Two milliliters culture medium per well was sufficient to sustain cell growth over all time courses investigated. Cells were treated with a dose range of Triptorelin or vehicle (20% propylene glycol, Sigma, UK). […] Absorbance measurements at 540 nm correlated with the number of cells per well."}, "[5]": {"test_system": "p-ERK1/2 in MCF-7hygro14 cells", "experiment": "p-ERK1/2 western blot, MCF-7hygro14", "assay_type": "cell-based, human", "conditions": "for ERK1/2 re-phosphorylation after inhibitor wash-off: 1 h exposure to IGF-IR inhibitor II, then medium containing serum", "method": "(§4) Cells were grown in six-well plastic culture plates until 50-70% confluent. Some samples were washed twice with phosphate buffered saline prior to incubation in serum-free medium overnight. Cells were treated with 100 nM Triptorelin or vehicle for specific time periods prior to lysis and harvesting. Samples were processed for western blotting as described previously using NP40 lysis buffer at 4°C [8, 9]. For quantitative data, time points were measured in triplicate. Blots were imaged by a Typhoon phosphor-imager (GE Healthcare, UK) using enhanced chemi-fluorescence detection and analyzed using ImageQuant software (GE Healthcare, UK).\nas §3"}, "[6]": {"test_system": "p-ERK1/2 in MDA-MB-231-34 cells", "experiment": "p-ERK1/2 western blot, MDA-MB-231-34", "assay_type": "cell-based, human", "conditions": "IGF-IR inhibitor II", "method": "as §4, §3"}, "[7]": {"test_system": "p-ERK1/2 in HEK293[SCL60] cells", "experiment": "p-ERK1/2 western blot, HEK293[SCL60]", "assay_type": "cell-based, human", "conditions": "IGF-IR inhibitor washed off, without Triptorelin", "method": "as §4, §3"}, "[8]": {"set-up": "method as in PMID 17512856, PMID 19213681", "conditions": "by inhibiting secretion of luteinizing hormone and follicle stimulating hormone; ref [1],[2]; cited from earlier work"}, "[9]": {"conditions": "96 h, without co-treatment, 4 days, read-out: IC50 growth inhibition"}, "[10]": {"conditions": "co-treatment with 100 nM Triptorelin, 4 days"}, "[11]": {"conditions": "co-treatment with 100 nM Triptorelin, SRB"}, "[12]": {"conditions": "single treatment, SRB (Triptorelin 100 nM)"}, "[13]": {"conditions": "15-20 μM IGF-IR inhibitor II, in the presence of serum"}, "[14]": {"conditions": "listed as IGF-I receptor inhibitor"}},
  "note": "pIC50: −log10 of the molar value. Entries after “also recorded” stand apart in the source; their conditions may differ. Like-named read-outs stand apart in the source and are kept apart here.",
  "data": [
    {"compound": "COc1cc2ncnc(Nc3ccc(OCc4ccccc4)cc3)c2cc1OC", "note": "[EGFR/ErbB2 inhibitor, 4-(4-Benzyloxyanilino)-6,7-dimethoxyquinazoline]", "values": [
      {"measurement": "pIC50", "setting": "[1]; [9]", "value": "~5.70"},
      {"measurement": "growth inhibition relative to vehicle treated cells", "setting": "[1]; after 4 days, SRB staining, 540 nm, DMEM with 10% fetal bovine serum, triplicate", "value": 50, "unit": "%"},
      {"measurement": "effect on cell growth of co-treatment", "setting": "[1]; [10]", "value": "did not significantly affect growth; also recorded: had no effect"},
      {"measurement": "effect on cell growth", "setting": "[1]; 4 days", "value": "reduced SVCT-2 cell growth"},
      {"measurement": "pIC50", "setting": "[2]; Homo sapiens, SRB", "value": "~5.30"},
      {"measurement": "growth inhibition", "setting": "[2]; after 4 days, SRB", "value": 50, "unit": "%"},
      {"measurement": "effect on cell growth of co-treatment", "setting": "[2]; [11]", "value": "no significant growth-inhibition; also recorded: did not significantly affect growth"},
      {"measurement": "effect on cell growth", "setting": "[2]; [12]", "value": "inhibited"}
    ]},
    {"compound": "COc1ccc(Cl)cc1NC(=O)Nc1cc(C)nc2ccccc12", "note": "[IGF-IR inhibitor II, N-(2-Methoxy-5-chlorophenyl)-N'-(2-methylquinolin-4-yl)-urea]", "values": [
      {"measurement": "pIC50", "setting": "[1]; [9]", "value": "~4.96"},
      {"measurement": "pIC50", "setting": "[1]; co-treatment with 100 nM Triptorelin, read-out: apparent IC50 growth inhibition", "value": "~5.05"},
      {"measurement": "effect on cell growth of co-treatment", "setting": "[1]; [10]", "value": "small additive effect; also recorded: increased growth inhibition marginally"},
      {"measurement": "effect on cell growth of co-treatment", "setting": "[1]; co-treatment with 100 nM Triptorelin, 4 days, listed as IGF-IR inhibitor", "value": "small additive growth-inhibitory effect"},
      {"measurement": "effect on cell growth", "setting": "[1]; 4 days", "value": "complete growth inhibition accompanied by cell death; also recorded: effectively inhibited"},
      {"measurement": "pIC50", "setting": "[2]; Homo sapiens, SRB", "value": "~4.77"},
      {"measurement": "inhibition at 15 µM", "setting": "[2]; Homo sapiens, 15 μM, exposure up to 2 hours, PBS washout, growth over 4 days, read-out: growth inhibition after transient exposure and washout", "value": "< 10", "unit": "%"},
      {"measurement": "effect on cell growth of co-treatment", "setting": "[2]; [11]", "value": "no significant effect"},
      {"measurement": "growth inhibition after transient exposure and washout", "setting": "[2]; exposure 6 hours or more, PBS washout, growth over 4 days", "value": "more than 20%"},
      {"measurement": "effect on cell growth", "setting": "[2]; [12]", "value": "Growth and survival were inhibited; also recorded: growth-inhibition and cell death"},
      {"measurement": "effect on cell growth", "setting": "[3]", "value": "inhibited"},
      {"measurement": "effect on cell growth", "setting": "[4]", "value": "inhibiting their growth also"},
      {"measurement": "effect on levels of p-ERK1/2", "setting": "[5]; [13]", "value": "permanent decrease in levels of p-ERK1/2"},
      {"measurement": "time to decrease in p-ERK1/2", "setting": "[5]; [13]", "value": "≤ 30", "unit": "min"},
      {"measurement": "effect on levels of p-ERK1/2", "setting": "[5]; 15-20 μM IGF-IR inhibitor II, in the presence of serum, listed as IGF-IR inhibitor", "value": "rapid and sustained de-phosphorylation of ERK1/2; also recorded: rapid decrease in the levels of p-ERK1/2"},
      {"measurement": "ERK1/2 re-phosphorylation after inhibitor wash-off", "setting": "[5]", "value": "rapid hyper-phosphorylation of ERK1/2 followed by a slow decline"},
      {"measurement": "ERK1/2 re-phosphorylation after inhibitor wash-off", "setting": "[5]; [14]", "value": "Rapid re-phosphorylation of ERK1/2"},
      {"measurement": "ERK1/2 re-phosphorylation after inhibitor wash-off", "setting": "[5]; listed as IGF-IR inhibitor", "value": "rapid hyper-phosphorylation of ERK1/2, followed by a slow decline to basal levels"},
      {"measurement": "effect on levels of p-ERK1/2", "setting": "[6]", "value": "did not elicit this effect"},
      {"measurement": "effect on levels of p-ERK1/2", "setting": "[6]; listed as IGF-IR inhibitor", "value": "not in MDA-MB-231-34 cells; also recorded: did not affect levels of p-ERK1/2"},
      {"measurement": "ERK1/2 re-phosphorylation after inhibitor wash-off", "setting": "[7]", "value": "hyper-phosphorylation of ERK1/2 did not occur"},
      {"measurement": "ERK1/2 re-phosphorylation after inhibitor wash-off", "setting": "[7]; [14]", "value": "Re-phosphorylation of ERK1/2 was less marked"},
      {"measurement": "ERK1/2 re-phosphorylation after inhibitor wash-off", "setting": "[7]; listed as IGFR-IR inhibitor II", "value": "rapid hyper-phosphorylation of ERK1/2 did not occur"}
    ]},
    {"compound": "O=C1NC(=O)C(=Cc2ccc3nccnc3c2)S1", "note": "[PI3Kγ inhibitor, 5-Quinoxalin-6-ylmethylene-thiazolidine-2,4-dione]", "values": [
      {"measurement": "effect on cell growth", "setting": "[2]; PI3K inhibitor 5 nM to 7 μM, maximum dose 7 μM", "value": "not affected"},
      {"measurement": "effect on cell growth", "setting": "[2]; PI3K inhibitor 5 nM to 7 μM, maximum dose 7 μM, listed as PI3K inhibitor", "value": "did not affect growth; also recorded: lack of effect"},
      {"measurement": "effect on cell growth of co-treatment", "setting": "[2]; PI3K inhibitor up to 7 μM with 100 nM Triptorelin", "value": "no significant growth-inhibition"},
      {"measurement": "effect on cell growth of co-treatment", "setting": "[2]; PI3K inhibitor up to 7 μM with 100 nM Triptorelin, listed as PI3K inhibitor", "value": "did not significantly alter this result"}
    ]},
    {"compound": "goserelin", "values": [
      {"measurement": "plasma levels of estrogen", "setting": "[8]", "value": "lowers plasma levels of estrogen"}
    ]}
  ]
}
